For six molecules, clearance results are on record in patent publication US12018059B2, “Human amylin analog polypeptides and methods of use” (Intarcia Therapeutics, Inc., priority 2018, dated 2024).

Positions of bridges follow the written chain, without caps; N, C: chain ends. Residues, ends and D or L forms follow the SMILES beside them.

The nature of the first data set: Pharmacokinetics, 3-hour intravenous infusion of linear (non-acylated) polypeptides. As to conditions: rat, in vivo, 0.1 mg/kg; linear polypeptides; 3-hour intravenous infusion, 0.100 mg/kg, male Sprague-Dawley rats; read-out: CL. Further details: species or system Sprague-Dawley rats. As to the method: Peptides were dissolved in sterile saline and administered as a 3-hour intravenous infusion to non-fasted male Sprague-Dawley rats (n=3 per group) via femoral vein cannula at a final dose of 0.100 mg/kg. […] Blood samples (approximately 250 μL) were collected for pharmacokinetic analysis via a jugular vein cannula at 0.25, 0.5, 1, 2, 3, 3.17, 3.33, 3.5, 4, 4.5, 5, and 6 hr post-start of infusion (long method) or at 1, 1.5, 2, 2.5, and 3 hr post-start of infusion (steady-state screening method). All samples were collected into microtainer tubes containing K2EDTA as anticoagulant and 25 μL of a protease inhibitor cocktail. Plasma was prepared by centrifugation and stored at −80° C. until analysis. The results of this analysis are shown in Table 9 and few exemplars in FIGS. 3a-3b.
A 60 μL aliquot of each plasma sample was placed into to a 96-well plate. To each well was added 6 μL of 0.5% Tween-20. Plates were then vortexed mixed for 10 minutes at 1200 rpm before 180 μL of 0.1% TFA in 2:1 ethanol:acetonitrile containing an appropriate internal standard was added to each well. Plates were vortex mixed for 5 min at 1300 rpm, and then centrifuged for 10 min at 2844×g. Supernatants (180 μL) were placed into a clean 96-well plate and evaporated under a nitrogen stream at 45° C. Residues were reconstituted in 80 μL of 20% acetonitrile (aq) containing 0.1% formic acid.
A […] aliquot of each plasma sample was diluted with […] of 10 mM ammonium acetate (pH 6.8) containing an appropriate internal standard and loaded onto an Oasis WCX microElution plate (Waters Corporation, Milford, MA) that had been pre-conditioned with […] of methanol and […] of deionized water. Samples were washed with […] of 5% ammonium hydroxide (aq) followed by […] of 20% acetonitrile in water. The analyte was eluted with […] of 5% formic acid in 75:25 acetonitrile:water. The eluent was dried under a nitrogen stream. Residues were reconstituted in 80 μL of 20% acetonitrile (aq) containing 0.1% formic acid.
All calibration standards were prepared in control rat plasma containing K2EDTA and protease inhibitor cocktail.
Samples and standards were analyzed by TurbolonSpray™ UPLC-MS/MS using a system consisting of a CTC HTS PAL auto-injector (Leap, Carrboro, NC), an Agilent Infinity 1290 system with column oven (Palo Alto, CA), a Valco switching valve (Houston, TX), and either an AB Sciex API 5600 TripleTOF™ or Sciex API 4000QTrap mass spectrometer (Framingham, MA). Samples were injected onto a 2.1×50 mm reverse phase C18 analytical column, typically a Waters CORTECS UPLC C18+, 1.6 μm (Waters Corporation, Milford, MA) or similar. […] Initial conditions consisted of 90% A and 10% B. The organic component was increased to 95% B over a period of 3-4 minutes, depending on the peptide. Typical flow rates were 600 μL/min. The column temperature was held constant at 40 or 50° C. Peptides were quantified by monitoring one or more product ions produced from a multiply charged parent ion.
Take `CC[C@H](C)[C@H](NC(=O)[C@@H]1CCCN1C(=O)CNC(=O)[C@H](Cc1ccccc1)NC(=O)[C@H](CC(N)=O)NC(=O)[C@H](CC(N)=O)NC(=O)[C@H](CO)NC(=O)[C@H](CO)NC(=O)[C@H](CCCCN)NC(=O)[C@H](Cc1c[nH]cn1)NC(=O)[C@H](CC(C)C)NC(=O)[C@H](CCC(=O)O)NC(=O)[C@H](CC(N)=O)NC(=O)[C@H](C)NC(=O)[C@H](CC(C)C)NC(=O)[C@H](CCCNC(=N)N)NC(=O)[C@H](CCC(N)=O)NC(=O)[C@@H](NC(=O)[C@H](C)NC(=O)[C@@H]1CSSC[C@H](NC(=O)[C@@H](N)CO)C(=O)N[C@@H](CC(N)=O)C(=O)N[C@@H]([C@@H](C)O)C(=O)N[C@@H](CO)C(=O)N[C@@H]([C@@H](C)O)C(=O)N1)[C@@H](C)O)C(=O)N[C@@H](CC(C)C)C(=O)N1CCC[C@H]1C(=O)N1CCC[C@H]1C(=O)N[C@H](C(=O)N[C@@H](CCCCN)C(=O)N[C@H](C(=O)NCC(=O)N[C@@H](CO)C(=O)N[C@@H](CC(N)=O)C(=O)N[C@H](C(=O)N[C@@H](Cc1ccc(O)cc1)C(N)=O)[C@@H](C)O)C(C)C)[C@@H](C)O` [Compound A17] (H-SCNTSTCATQRLANELHKSSNNFGPILPPTKVGSNTY-NH2; disulfide 2-7): the clearance came to 20 mL/min/kg.

With `CC[C@H](C)[C@H](NC(=O)[C@@H]1CCCN1C(=O)CNC(=O)[C@H](Cc1ccccc1)NC(=O)[C@H](CC(N)=O)NC(=O)[C@H](CC(N)=O)NC(=O)[C@H](CO)NC(=O)[C@H](CO)NC(=O)[C@H](Cc1c[nH]cn1)NC(=O)[C@@H](NC(=O)[C@H](CC(C)C)NC(=O)[C@H](CCC(=O)O)NC(=O)[C@H](CC(N)=O)NC(=O)[C@H](C)NC(=O)[C@H](CC(C)C)NC(=O)[C@H](CCCNC(=N)N)NC(=O)[C@H](CO)NC(=O)[C@@H](NC(=O)[C@H](C)NC(=O)[C@@H]1CSSC[C@H](NC(=O)[C@@H](N)CO)C(=O)N[C@@H](CC(N)=O)C(=O)N[C@@H]([C@@H](C)O)C(=O)N[C@@H](CO)C(=O)N[C@@H]([C@@H](C)O)C(=O)N1)[C@@H](C)O)C(C)C)C(=O)N[C@@H](CC(C)C)C(=O)N1CCC[C@H]1C(=O)N1CCC[C@H]1C(=O)N[C@H](C(=O)N[C@@H](CC(N)=O)C(=O)N[C@H](C(=O)NCC(=O)N[C@@H](CO)C(=O)N[C@@H](CC(N)=O)C(=O)N[C@H](C(=O)N[C@@H](Cc1ccc(O)cc1)C(N)=O)[C@@H](C)O)C(C)C)[C@@H](C)O` [Compound A32] (H-SCNTSTCATSRLANELVHSSNNFGPILPPTNVGSNTY-NH2; disulfide 2-7), the clearance is 19.5 mL/min/kg.

`CC[C@H](C)[C@H](NC(=O)[C@@H]1CCCN1C(=O)CNC(=O)[C@H](Cc1ccccc1)NC(=O)[C@H](CCC(=O)O)NC(=O)[C@H](CC(N)=O)NC(=O)[C@H](CO)NC(=O)[C@H](CO)NC(=O)[C@H](CCCNC(=N)N)NC(=O)[C@H](Cc1c[nH]cn1)NC(=O)[C@H](CC(C)C)NC(=O)[C@H](CCC(=O)O)NC(=O)[C@H](CC(N)=O)NC(=O)[C@H](C)NC(=O)[C@H](CC(C)C)NC(=O)[C@H](CCCNC(=N)N)NC(=O)[C@H](CCC(N)=O)NC(=O)[C@@H](NC(=O)[C@H](C)NC(=O)[C@@H]1CSSC[C@H](NC(=O)[C@@H](N)CO)C(=O)N[C@@H](CC(N)=O)C(=O)N[C@@H]([C@@H](C)O)C(=O)N[C@@H](CO)C(=O)N[C@@H]([C@@H](C)O)C(=O)N1)[C@@H](C)O)C(=O)N[C@@H](CC(C)C)C(=O)N1CCC[C@H]1C(=O)N1CCC[C@H]1C(=O)N[C@H](C(=O)N[C@@H](CC(N)=O)C(=O)N[C@H](C(=O)NCC(=O)N[C@@H](CO)C(=O)N[C@@H](CC(N)=O)C(=O)N[C@H](C(=O)N[C@@H](Cc1ccc(O)cc1)C(N)=O)[C@@H](C)O)C(C)C)[C@@H](C)O` [Compound A41] (H-SCNTSTCATQRLANELHRSSNEFGPILPPTNVGSNTY-NH2; disulfide 2-7): the clearance was determined as 17.5 mL/min/kg.

Staying with this data set, now noted: rat, in vivo, iv, 0.1 mg/kg.
`CC[C@H](C)[C@H](NC(=O)[C@@H]1CCCN1C(=O)CNC(=O)[C@H](Cc1ccccc1)NC(=O)[C@H](CC(N)=O)NC(=O)[C@H](CC(N)=O)NC(=O)[C@H](CO)NC(=O)[C@H](CO)NC(=O)[C@H](CCCNC(=N)N)NC(=O)[C@H](Cc1c[nH]cn1)NC(=O)[C@H](CC(C)C)NC(=O)[C@H](CCC(=O)O)NC(=O)[C@H](CC(N)=O)NC(=O)[C@H](CO)NC(=O)[C@H](CC(C)C)NC(=O)[C@H](CCCNC(=N)N)NC(=O)[C@H](CO)NC(=O)[C@@H](NC(=O)[C@H](C)NC(=O)[C@@H]1CSSC[C@H](NC(=O)[C@@H](N)CO)C(=O)N[C@@H](CC(N)=O)C(=O)N[C@@H]([C@@H](C)O)C(=O)N[C@@H](CO)C(=O)N[C@@H]([C@@H](C)O)C(=O)N1)[C@@H](C)O)C(=O)N[C@@H](CC(C)C)C(=O)N1CCC[C@H]1C(=O)N1CCC[C@H]1C(=O)N[C@H](C(=O)N[C@@H](CCCCN)C(=O)N[C@H](C(=O)NCC(=O)N[C@@H](CO)C(=O)N[C@@H](CCC(=O)O)C(=O)N[C@H](C(=O)N[C@@H](Cc1ccc(O)cc1)C(N)=O)[C@@H](C)O)C(C)C)[C@@H](C)O` [Compound A33] (H-SCNTSTCATSRLSNELHRSSNNFGPILPPTKVGSETY-NH2; disulfide 2-7) displayed a clearance of 17.7 mL/min/kg.

Consider `CC[C@H](C)[C@H](NC(=O)[C@@H]1CCCN1C(=O)CNC(=O)[C@H](Cc1ccccc1)NC(=O)[C@H](CC(N)=O)NC(=O)[C@H](CC(N)=O)NC(=O)[C@H](CO)NC(=O)[C@H](CO)NC(=O)[C@H](CCCNC(=N)N)NC(=O)[C@H](Cc1c[nH]cn1)NC(=O)[C@H](CC(C)C)NC(=O)[C@H](CCC(=O)O)NC(=O)[C@H](CC(N)=O)NC(=O)[C@H](CO)NC(=O)[C@H](CC(C)C)NC(=O)[C@H](CCCNC(=N)N)NC(=O)[C@H](CCC(N)=O)NC(=O)[C@@H](NC(=O)[C@H](C)NC(=O)[C@@H]1CSSC[C@H](NC(=O)[C@@H](N)CO)C(=O)N[C@@H](CC(N)=O)C(=O)N[C@@H]([C@@H](C)O)C(=O)N[C@@H](CO)C(=O)N[C@@H]([C@@H](C)O)C(=O)N1)[C@@H](C)O)C(=O)N[C@@H](CC(C)C)C(=O)N1CCC[C@H]1C(=O)N1CCC[C@H]1C(=O)N[C@H](C(=O)N[C@@H](CCCCN)C(=O)N[C@H](C(=O)NCC(=O)N[C@@H](CO)C(=O)N[C@@H](CCC(=O)O)C(=O)N[C@H](C(=O)N[C@@H](Cc1ccc(O)cc1)C(N)=O)[C@@H](C)O)C(C)C)[C@@H](C)O` [Compound A34] (H-SCNTSTCATQRLSNELHRSSNNFGPILPPTKVGSETY-NH2; disulfide 2-7), for which the clearance was 15.5 mL/min/kg.

`CC[C@H](C)[C@H](NC(=O)[C@@H]1CCCN1C(=O)CNC(=O)[C@H](Cc1ccccc1)NC(=O)[C@H](CCC(=O)O)NC(=O)[C@H](CC(N)=O)NC(=O)[C@H](CO)NC(=O)[C@H](CO)NC(=O)[C@H](CCCCN)NC(=O)[C@@H](NC(=O)[C@H](CC(C)C)NC(=O)[C@H](Cc1ccccc1)NC(=O)[C@H](CC(N)=O)NC(=O)[C@H](C)NC(=O)[C@H](CC(C)C)NC(=O)[C@H](CCCNC(=N)N)NC(=O)[C@H](CCC(N)=O)NC(=O)[C@@H](NC(=O)[C@H](C)NC(=O)[C@@H]1CSSC[C@H](NC(=O)[C@@H](N)CO)C(=O)N[C@@H](CC(N)=O)C(=O)N[C@@H]([C@@H](C)O)C(=O)N[C@@H](CO)C(=O)N[C@@H]([C@@H](C)O)C(=O)N1)[C@@H](C)O)C(C)C)C(=O)N[C@@H](CC(C)C)C(=O)N1CCC[C@H]1C(=O)N1CCC[C@H]1C(=O)N[C@H](C(=O)N[C@@H](CCCCN)C(=O)N[C@H](C(=O)NCC(=O)N[C@@H](CO)C(=O)N[C@@H](CCC(=O)O)C(=O)N[C@H](C(=O)N[C@@H](Cc1ccc(O)cc1)C(N)=O)[C@@H](C)O)C(C)C)[C@@H](C)O` [Compound A43] (H-SCNTSTCATQRLANFLVKSSNEFGPILPPTKVGSETY-NH2; disulfide 2-7) showed a clearance of 23.2 mL/min/kg.
